Entries after “also recorded” stand apart in the source; their conditions may differ. Like-named read-outs stand apart in the source and are kept apart here.
Assays:
CEM-DNR = assay: MTS cytotoxicity assay, 72 h; type: cell-based; details: Homo sapiens, read-out: IC50 CEM-DNR
CCRF-CEM = assay: MTS cytotoxicity assay, 72 h; type: cell-based; details: Homo sapiens, CCRF-CEM, 72 h
BJ = assay: MTS cytotoxicity assay, 72 h; type: cell-based; details: Homo sapiens, read-out: IC50 BJ
A549 = assay: MTS cytotoxicity assay, 72 h; type: cell-based; details: Homo sapiens, Fig. S22
Method: Cell suspensions were prepared and diluted according to the particular cell type and the expected target cell density (500 – 4,000 cells/well). The cells (30 μL/well) were seeded to 384-well clear Corning plates by MultiDrop Combi (Thermo Fisher Scientific, USA). After 24 h the cells were treated with tested compounds as well as with vehicle (DMSO) and high controls (2.67 μM of Actinomycin D and 100 μM Mitomycin C) using contact-free acoustic liquid handler ECHO 555 (Labcyte, USA). Compounds were analyzed at a concentration range from 0.012 μM to 50 μM. Treated cells were incubated at 37 °C in a 5% CO2 atmosphere of a humidified incubator for 72 h. At the end of the incubation period, aliquots of the MTS (Promega) solution prepared according to manufacturer's instructions were added to cells (https://worldwide.promega.com/resources/protocols/technical-bulletins/0/celltiter-96-aqueous-nonradioactive-cell-proliferation-assay-protocol/). After 1 – 4 h of the incubation period, the optical density (OD) at 490 nm was measured on a multimode plate reader EnVision (PerkinElmer, USA). The experiments were performed in technical duplicates and at least three biological replicates. […] The assay quality was monitored by determining the Z′-factor for each 384-well plate. The resistance index (RI), representing the reduction in compound activity on resistant cell lines, was calculated as RI = (IC50 of resistant cell lines, CEM-DNR, K562-TAX)/(IC50 of nonresistant counterparts, CCRF-CEM, K562). Similarly, the selectivity index (SI), indicating preferential cytotoxicity toward tumor cell lines, was calculated as SI = (mean IC50 of nontumor cell lines, BJ and MRC5)/(mean IC50 of cancer cell lines without resistant variants, CCRF-CEM, K562, HCT116, HCT116p53–/–, U2OS).

U2OS = assay: MTS cytotoxicity assay, 72 h; type: cell-based, human
K562 = assay: MTS cytotoxicity assay, 72 h; type: cell-based; details: Homo sapiens, K562, 72 h, read-out: IC50 K562
K562-TAX = assay: MTS cytotoxicity assay, 72 h; type: cell-based; details: read-out: IC50 K562-TAX
MRC-5 = assay: MTS cytotoxicity assay, 72 h; type: cell-based; details: Homo sapiens, MRC5, 72 h, read-out: IC50 MRC-5
HCT116p53–/– = assay: MTS cytotoxicity assay, 72 h; type: cell-based; details: read-out: IC50 HCT116p53–/–
HCT116 = assay: MTS cytotoxicity assay, 72 h; type: cell-based; details: Homo sapiens, HCT-116, 72 h, read-out: IC50 HCT116
[1] = test system: microtubules in U2OS cells; assay: Immunofluorescence of microtubule organization; type: cell-based, human; details: 15 h
Method: DMSO at appropriate dilution served as control.
Immunofluorescence microscopy on formaldehyde-fixed, Triton X-100 extracted cells (F/Tx) was performed as previously described. Extraction and fixation steps were carried out in a microtubule stabilizing buffer consisting of 0.1 M KMes, 2 mM EGTA, 2 mM MgCl2, 4% polyethylene glycol 6000, pH 6.9. Cells were fixed for 30 min in 3% formaldehyde before extraction for 4 min with 0.5% Triton X-100 at 37 °C. Mouse monoclonal antibody TU-01 (IgG1) directed to α-tubulin , in the form of hybridoma spent culture medium was diluted 1:10. The DyLight 549-conjugated antimouse antibody (Jackson Immunoresearch Laboratories, West Grove, PA, USA) was diluted 1:500. Samples were mounted in MOWIOL 4–88 (Calbiochem, San Diego, CA, USA) supplemented with 4,6-diamidino-2-phenylindole (DAPI; Sigma-Aldrich, St. Louis, MO, USA) and examined with an Olympus AX-70 Provis microscope (Olympus, Hamburg, Germany) equipped with a 60×/1.0 water objective.

HUVEC = assay: MTS cytotoxicity assay, 72 h; type: cell-based; details: Homo sapiens, 3-day incubation, mean ± SD
CCRF-CEM lymphoblasts = assay: FACS analysis of cell cycle, apoptosis, mitosis and polyploidy; details: for Mitosis: phospho-Histone (Ser10); for Apoptosis: sub-G0/G1 DNA content, % of positive cells
[2] = daunorubicin-resistant, MTS assay, 3-day incubation, mean ± SD
[3] = MTS assay, 3-day incubation, mean ± SD of 3 experiments, read-out: IC50 CCRF-CEM
[4] = normal fibroblasts, MTS assay, 3-day incubation, mean ± SD
[5] = Homo sapiens, U2OS, 72 h, MTS assay, 3-day incubation, mean ± SD, read-out: IC50 U2OS
[6] = MTS assay, 3-day incubation, mean ± SD
[7] = paclitaxel-resistant, MTS assay, 3-day incubation, mean ± SD
[8] = read-out: IC50 CCRF-CEM, MTS assay, 3-day incubation, mean ± SD of 3 experiments

Row | SMILES | IC50 (CEM-DNR; [2]) [µM] | IC50 (CCRF-CEM; [3]) [µM] | IC50 (BJ; [4]) [µM] | IC50 (A549) [µM] | IC50 (U2OS; [5]) [µM] | IC50 (K562; [6]) [µM] | IC50 (K562-TAX; [7]) [µM] | IC50 (MRC-5; [4]) [µM] | IC50 (HCT116p53–/–; [6]) [µM] | G0/G1 (CCRF-CEM lymphoblasts; 1×IC50, 24 h) [%] | G2/M (CCRF-CEM lymphoblasts; 1×IC50, 24 h) [%] | Polyploid cells (CCRF-CEM lymphoblasts; 1×IC50, 24 h) [%] | S (CCRF-CEM lymphoblasts; 1×IC50, 24 h) [%] | Mitosis (CCRF-CEM lymphoblasts; 1×IC50, 24 h) [%] | Apoptosis (CCRF-CEM lymphoblasts; 1×IC50, 24 h) [%] | G0/G1 (CCRF-CEM lymphoblasts; 5×IC50, 24 h) [%] | Polyploid cells (CCRF-CEM lymphoblasts; 5×IC50, 24 h) [%] | S (CCRF-CEM lymphoblasts; 5×IC50, 24 h) [%] | Mitosis (CCRF-CEM lymphoblasts; 5×IC50, 24 h) [%] | Apoptosis (CCRF-CEM lymphoblasts; 5×IC50, 24 h) [%] | further results
1 | COc1cc(C2=C3C(C)=CC(C)=[N+]3[B-](F)(F)n3c(C)cc(C)c32)ccc1O [B7] | 39.9 | > 50 | > 50 | > 50 | > 50 | > 50 | > 50 | > 50 | > 50 |  |  |  |  |  |  |  |  |  |  |  | IC50 (HCT116; [6]): > 50 µM
2 | C#CCOc1ccc(C2=C3C(C)=CC(C)=[N+]3[B-](F)(F)n3c(C)cc(C)c32)cc1OC [B8] | > 50 | > 50 | > 50 | > 50 | > 50 | > 50 | > 50 | > 50 | > 50 |  |  |  |  |  |  |  |  |  |  |  | IC50 (HCT116; [6]): > 50 µM
3 | C#CCCCC1=C2C(C)=CC(C)=[N+]2[B-](F)(F)n2c(C)cc(C)c21 [B9] | > 50 | > 50 | > 50 | > 50 | > 50 | > 50 | > 50 | > 50 | > 50 |  |  |  |  |  |  |  |  |  |  |  | IC50 (HCT116; [6]): > 50 µM
4 | C#CCCCCCCCCC1=C2C(C)=CC(C)=[N+]2[B-](F)(F)n2c(C)cc(C)c21 [B10] | > 50 | > 50 | > 50 | > 50 | > 50 | > 50 | > 50 | > 50 | > 50 |  |  |  |  |  |  |  |  |  |  |  | IC50 (HCT116; [6]): > 50 µM
5 | COc1cc2c(c(OC)c1OC)-c1ccc(OC)c(=O)cc1[C@@H](NC(=O)CCC1=C3C(C)=CC(C)=[N+]3[B-](F)(F)n3c(C)cc(C)c31)CC2 [CB1] |  |  |  |  |  |  |  |  |  | 36.69 | 38.6 | 17.25 | 24.71 | 7.96 | 5.32 | 50.26 | 19.14 | 1.72 | 17.85 | 11.73 | RI (resistance index) (panel of cell lines): 4.16; SI (selectivity index) (panel of cell lines): 13.66; IC50 (CEM-DNR): 2.07 ± 0.212 µM; IC50 (CCRF-CEM; [8]): 0.4 ± 0.018 µM; effect on microtubules (in words) ([1]; 10 μM): completely disrupted microtubules; IC50 (BJ): 8.35 ± 0.419 µM; IC50 (HUVEC): 0.67 ± 0.033 µM; IC50 (K562): 0.45 ± 0.054 µM; G2/M (CCRF-CEM lymphoblasts; 5×IC50, 24 h): 48.02%; IC50 (K562-TAX): 1.47 ± 0.361 µM; IC50 (MRC-5): 5.69 ± 0.639 µM; IC50 (HCT116p53–/–): 0.58 ± 0.063 µM; IC50 (HCT116): 0.5 ± 0.032 µM
6 | COc1cc2c(c(OC)c1OC)-c1ccc(OC)c(=O)cc1[C@@H](n1cc(CCCC3=C4C(C)=CC(C)=[N+]4[B-](F)(F)n4c(C)cc(C)c43)nn1)CC2 [CB4] |  |  |  |  |  |  |  |  |  | 41.19 | 27.75 | 19.29 | 31.06 | 2.76 | 3.04 | 5.49 | 23.72 | 1.83 | 64.43 | 12.24 | cytotoxic activity across the cell line panel (in words) (panel of cell lines): changed only slightly; IC50 (CCRF-CEM; [8]): 0.02 ± 0.0009 µM; effect on microtubules (in words) ([1]; 10 μM): microtubule remnants were detectable; also recorded: perinuclear bundles were observed; also recorded: disruption of microtubule organization and generation of perinuclear microtubule bundles; IC50 (BJ): > 50 µM; IC50 (HUVEC): < 0.0122 µM; IC50 (K562): 0.088 ± 0.013 µM; IC50 (MRC-5): > 50 µM; IC50 (HCT116p53–/–): 0.12 ± 0.012 µM; IC50 (HCT116): 0.1 ± 0.004 µM
7 | COc1cc2c(c(OC)c1OC)-c1ccc(OC)c(=O)cc1[C@@H](n1cc(CCCCCCCCC3=C4C(C)=CC(C)=[N+]4[B-](F)(F)n4c(C)cc(C)c43)nn1)CC2 [CB5] |  |  |  |  |  |  |  |  |  | 11.02 | 85.47 | 24.32 | 3.51 | 42.49 | 9.64 | 5.27 | 26.07 | 0.77 | 60.70 | 10.96 | RI (resistance index) (panel of cell lines): 2.49; SI (selectivity index) (panel of cell lines): >74.18; IC50 (CEM-DNR): 1.39 ± 0.139 µM; IC50 (CCRF-CEM; [8]): 0.42 ± 0.014 µM; effect on microtubules (in words) ([1]; 10 μM): completely disrupted microtubules; IC50 (BJ): > 50 µM; IC50 (HUVEC): 0.45 ± 0.012 µM; IC50 (U2OS; Homo sapiens, U2OS, 72 h, read-out: IC50 U2OS, MTS assay, 3-day incubation, mean ± SD): < 2 µM; IC50 (U2OS; read-out: IC50 U2OS, MTS assay, 3-day incubation, mean ± SD): 1.04 ± 0.141 µM; IC50 (K562): 0.5 ± 0.122 µM; IC50 (K562-TAX): 0.9 ± 0.026 µM; IC50 (MRC-5): > 50 µM; IC50 (HCT116p53–/–): 0.77 ± 0.063 µM; IC50 (HCT116): 0.64 ± 0.065 µM
8 | COc1cc(C2=C3C(C)=CC(C)=[N+]3[B-](F)(F)n3c(C)cc(C)c32)ccc1OCc1cn([C@H]2CCc3cc(OC)c(OC)c(OC)c3-c3ccc(OC)c(=O)cc32)nn1 [CB6] |  |  |  |  |  |  |  |  |  | 12.32 | 55.58 | 23.13 | 32.1 | 29.41 | 7.55 | 3.72 | 24.76 | 1.88 | 61.11 | 14.32 | cytotoxic activity across the cell line panel (in words) (panel of cell lines): changed only slightly; IC50 (CCRF-CEM; [8]): 0.14 ± 0.01 µM; effect on microtubules (in words) ([1]; 10 μM): microtubule remnants were detectable; IC50 (BJ): > 50 µM; IC50 (HUVEC): < 0.0122 µM; IC50 (K562): 0.026 ± 0.001 µM; IC50 (MRC-5): > 50 µM; IC50 (HCT116p53–/–): 0.38 ± 0.057 µM; IC50 (HCT116): 0.43 ± 0.0325 µM
9 | COc1cc2c(c(OC)c1OC)-c1ccc(OC)c(=O)cc1[C@@H](NC(C)=O)CC2 [Col, colchicine, reference compound] |  |  |  |  |  |  |  |  |  | 2.61 | 80.55 | 14.45 | 16.84 | 58.35 | 13.67 | 4.73 | 14.73 | 24.71 | 64.48 | 11.47 | effect on microtubules (in words) ([1]; 0.1 μM): effectively depolymerized microtubules; G2/M (CCRF-CEM lymphoblasts; 5×IC50, 24 h): 70.57%; polyploidization in CCRF-CEM cells (in words) (CCRF-CEM lymphoblasts; both 1 × IC50 and 5 × IC50): induced polyploidization

— paper PMC12261228 (ACS Pharmacology & Translational Science, 2025)
